From publication PMC12171880, “Selectivity and Safety Characterization of a Xanthine–Imidazothiazole Lead Structure: a Novel Tryptophan Hydroxylase Inhibitor of Peripheral Serotonin Synthesis” (ACS Pharmacology & Translational Science, 2025)

Assays:
[1] = molecular target: T1, human recombinant TPH2 (Homo sapiens, UniProt Q8IWU9); assay: TPH2 enzymatic activity assay (fluorescence, 96-well); assay type: biochemical
T1 construct: Full-length human TPH1 and TPH2 (UniProt entries P17752 and Q8IWU9); MBP (N); made in house
T1 sequence (Q8IWU9 1-490): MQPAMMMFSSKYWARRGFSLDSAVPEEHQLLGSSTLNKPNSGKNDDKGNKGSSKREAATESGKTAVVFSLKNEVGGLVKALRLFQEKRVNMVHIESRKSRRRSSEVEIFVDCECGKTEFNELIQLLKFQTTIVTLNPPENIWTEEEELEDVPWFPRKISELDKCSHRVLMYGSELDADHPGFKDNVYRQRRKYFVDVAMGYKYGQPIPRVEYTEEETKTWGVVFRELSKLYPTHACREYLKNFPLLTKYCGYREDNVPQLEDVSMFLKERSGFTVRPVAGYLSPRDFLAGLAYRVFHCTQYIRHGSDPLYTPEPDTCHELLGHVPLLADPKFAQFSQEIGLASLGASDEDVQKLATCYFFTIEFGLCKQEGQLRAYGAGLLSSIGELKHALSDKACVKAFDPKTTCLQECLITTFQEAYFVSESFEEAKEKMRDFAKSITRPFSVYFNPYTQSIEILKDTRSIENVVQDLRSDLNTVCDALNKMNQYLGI

[2] = molecular target: T2, recombinant human TH (Homo sapiens, UniProt P07101); assay: TH enzymatic activity assay (fluorescence, 96-well); assay type: biochemical
T2 construct: For purification of MBP-tagged full-length PAH and TH; made in house; host or cells: E. coli T7 Express (NEB) with pRARE2
Method: The TH enzymatic activity assay was performed using a 96-well plate format (Greiner). […] To initiate the reaction, L-Tyr (Fluka) was added (final concentration, 30 μM). The assay contained positive control samples (complete reaction mix, no inhibitor test compound), negative control samples (reaction mix without BH4), and an additional L-Tyr control (reaction mix without BH4, spiked with 25.5 μM or 27 μM L-Tyr) to measure the progression of the enzymatic reaction. All samples were measured in technical triplicates. The TH assay was performed at RT for 30 min. Depletion of the reaction substrate (L-Tyr) was continuously monitored at 240 s intervals by fluorescence measurements (ex.280 nm/em.306 nm) for 12 min using a Tecan Infinite 200 plate reader.
Negative control values (no enzyme or no substrate) were deducted from the positive control (full enzyme activity) and test compound values. Subsequently, the data were normalized (Pos. Ctr. = 100% of the enzyme activity). The results were further analyzed with GraphPad Prism 9 using the nonlinear regression model: log(inhibitor) vs. response−variableslope(fourparameters) which fits the following equation to the data: Y=Bottom+(Top−Bottom)/(1+10^((logIC50−X)×HillSlope))
The IC50 values were calculated from three independent experiments and are given as the mean ± SD.

[3] = system: 97 targets (receptors, enzymes, and ion channels); assay: Eurofins Diversity Panel, 97 binding, enzyme and uptake assays; conditions: 10 μM
Method: TPT-004 was evaluated at a concentration of 10 μM in a total of 97 binding, enzyme, and uptake assays (Diversity Panel) by Eurofins Cerep (Celle l’Evescault, France). Compound binding was calculated as % inhibition of the binding of a ligand specific to each target. The compound enzyme inhibition effect was calculated as percentage inhibition of the control enzyme activity. Results showing an inhibition (or stimulation for assays run under basal conditions) of >50% are considered to represent significant effects of the test compounds. Results showing an inhibition (or stimulation) between 25% and 50% are indicative of weak to moderate effects. Results showing an inhibition (or stimulation) lower than 25% are not considered significant and are mostly attributable to variability in the signal around the control level. […] In each experiment, and if applicable, the respective reference compound was tested concurrently with TPT-004, and the data were compared with historical values determined at Eurofins. […]
The results are expressed as a percent of control-specific binding: measured specific binding/control specific binding×100 and as a percent inhibition of control-specific binding: 100−(measured specific binding/control specific binding×100) obtained in the presence of TPT-004. […]

[4] = calculated from determined IC50 values

T2 sequence (P07101 whole entry): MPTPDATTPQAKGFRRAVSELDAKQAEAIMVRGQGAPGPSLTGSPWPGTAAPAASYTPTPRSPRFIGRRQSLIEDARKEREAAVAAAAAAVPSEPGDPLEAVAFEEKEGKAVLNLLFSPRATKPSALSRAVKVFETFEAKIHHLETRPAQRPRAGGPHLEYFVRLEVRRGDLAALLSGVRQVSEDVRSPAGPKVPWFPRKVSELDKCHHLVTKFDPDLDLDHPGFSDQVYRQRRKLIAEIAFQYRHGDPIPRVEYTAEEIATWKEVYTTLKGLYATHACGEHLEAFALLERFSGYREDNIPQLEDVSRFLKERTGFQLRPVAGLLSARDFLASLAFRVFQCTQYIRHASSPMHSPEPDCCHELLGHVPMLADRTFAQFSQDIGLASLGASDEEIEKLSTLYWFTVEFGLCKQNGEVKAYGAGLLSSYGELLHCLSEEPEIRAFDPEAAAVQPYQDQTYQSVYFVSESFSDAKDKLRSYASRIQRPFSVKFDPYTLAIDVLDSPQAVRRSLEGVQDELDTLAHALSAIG

SMILES: CCn1c(=O)[nH]c(=O)c2c1nc(Cc1cn3cc(C)sc3n1)n2CC1COC1 [TPT-004]
- Mean TPH2 activity [%] ([1]; 3 nM): 100.37%
- IC50 ([1]; 3 nM to 10 μM, 30 μM L-Trp, 7.5 μM BH4): 21.7 nM
- Mean TPH2 activity [%] ([1]; 10 nM): 73.97%
- Mean TPH2 activity [%] ([1]; 30 nM): 38.03%
- Mean TPH2 activity [%] ([1]; 100 nM): 5.40%
- Mean TPH2 activity [%] ([1]; 300 nM): 1.60%
- Mean TPH2 activity [%] ([1]; 1 μM): 0.69%
- Mean TPH2 activity [%] ([1]; 3 μM): 1.07%
- Mean TPH2 activity [%] ([1]; 10 μM): 1.24%
- Selectivity ratio TPH2 IC50 : TPH1 IC50 [1, 4]: 0.65
- IC50 ([1]; supplementary CSV): 22 nM
- Mean TH activity [%] ([2]; 10 nM): 92.60%
- IC50 ([2]; 10 nM to 30 μM, 30 μM L-Tyr, 5 μM BH4): 1360 nM
- Mean TH activity [%] ([2]; 30 nM): 90.14%
- Mean TH activity [%] ([2]; 100 nM): 95.57%
- Mean TH activity [%] ([2]; 300 nM): 86.81%
- Mean TH activity [%] ([2]; 1 μM): 58.14%
- Mean TH activity [%] ([2]; 3 μM): 28.97%
- Mean TH activity [%] ([2]; 10 μM): 6.59%
- Mean TH activity [%] ([2]; 30 μM): -6.30%
- Selectivity ratio TH IC50 : TPH1 IC50 [2, 4]: 40.71
- IC50 ([2]; supplementary CSV): 1360 nM
- significant effects (more than 50% inhibition or stimulation) among 97 targets [3]: a significant effect was observed only for the rat homolog of TH
